One data set deals with PARP1 (Homo sapiens, UniProt P09874). Briefly: PARP enzyme assay (PARP1, chemiluminescent histone ribosylation). As to conditions: for % inhibition 10 nM / % inhibition 100 nM: PARP enzyme assay; for % inhibition 10 nM: 10 nM compound, 0.01 µM; for % inhibition 100 nM: 100 nM compound, 0.1 µM.
Another data set deals with PARP2 (Homo sapiens, UniProt Q9UGN5). The data set can be described thus: PARP enzyme assay (PARP2). It is filed as biochemical. The source says:
Step 2: Ribosylation Reaction

Read-outs that look alike come from different tables or passages of the source. Bounds are passed on as bounds.

PARP2, sequence (Q9UGN5 whole entry, species assumed): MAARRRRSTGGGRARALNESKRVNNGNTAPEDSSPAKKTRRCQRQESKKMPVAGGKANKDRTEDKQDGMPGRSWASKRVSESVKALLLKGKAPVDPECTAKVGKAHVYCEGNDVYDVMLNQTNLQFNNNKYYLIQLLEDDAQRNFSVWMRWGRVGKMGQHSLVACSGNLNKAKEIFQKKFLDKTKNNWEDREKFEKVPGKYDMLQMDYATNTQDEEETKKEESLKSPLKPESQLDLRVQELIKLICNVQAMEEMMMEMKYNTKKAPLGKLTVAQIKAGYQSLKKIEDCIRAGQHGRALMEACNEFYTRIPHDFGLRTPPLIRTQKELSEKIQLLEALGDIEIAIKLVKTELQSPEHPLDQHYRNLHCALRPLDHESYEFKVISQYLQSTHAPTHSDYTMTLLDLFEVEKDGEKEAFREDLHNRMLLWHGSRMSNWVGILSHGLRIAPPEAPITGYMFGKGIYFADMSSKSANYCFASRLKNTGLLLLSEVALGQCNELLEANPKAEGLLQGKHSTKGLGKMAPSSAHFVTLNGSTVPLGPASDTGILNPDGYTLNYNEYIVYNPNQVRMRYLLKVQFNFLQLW
PARP1, sequence (P09874 whole entry, species assumed): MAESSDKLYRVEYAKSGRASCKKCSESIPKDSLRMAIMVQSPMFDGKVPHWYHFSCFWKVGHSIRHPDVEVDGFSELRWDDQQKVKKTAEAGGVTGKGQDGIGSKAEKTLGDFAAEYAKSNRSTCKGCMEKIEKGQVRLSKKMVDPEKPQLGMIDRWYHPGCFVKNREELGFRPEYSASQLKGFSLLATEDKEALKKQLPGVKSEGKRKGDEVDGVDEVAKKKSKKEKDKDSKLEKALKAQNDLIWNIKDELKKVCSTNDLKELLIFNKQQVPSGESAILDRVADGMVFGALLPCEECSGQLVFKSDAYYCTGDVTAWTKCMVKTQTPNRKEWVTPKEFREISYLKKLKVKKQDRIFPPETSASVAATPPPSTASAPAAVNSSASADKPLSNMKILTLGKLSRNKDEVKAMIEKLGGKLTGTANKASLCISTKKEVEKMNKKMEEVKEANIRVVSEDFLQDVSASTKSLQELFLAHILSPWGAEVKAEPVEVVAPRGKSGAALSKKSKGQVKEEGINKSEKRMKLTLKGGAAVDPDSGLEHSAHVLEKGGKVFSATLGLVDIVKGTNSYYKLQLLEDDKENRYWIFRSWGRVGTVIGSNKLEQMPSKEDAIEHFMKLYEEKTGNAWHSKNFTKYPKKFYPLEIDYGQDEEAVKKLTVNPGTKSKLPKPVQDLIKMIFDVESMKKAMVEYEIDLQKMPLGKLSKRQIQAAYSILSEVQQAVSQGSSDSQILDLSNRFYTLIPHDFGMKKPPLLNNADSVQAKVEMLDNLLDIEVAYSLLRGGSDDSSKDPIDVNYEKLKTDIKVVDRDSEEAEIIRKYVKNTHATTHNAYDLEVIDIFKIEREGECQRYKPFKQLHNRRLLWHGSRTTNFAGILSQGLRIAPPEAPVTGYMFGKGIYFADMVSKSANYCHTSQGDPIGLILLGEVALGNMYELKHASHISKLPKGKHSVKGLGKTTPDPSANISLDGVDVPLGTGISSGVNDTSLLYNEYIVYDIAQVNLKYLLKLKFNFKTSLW
Procedure for PARP1: 1) Coat 25 µL of histone solution onto a 384-well plate as described below: • Dilute 5x histone mixture 1:5 with PBS. • Add 25 µL of diluted histone solution to each well and incubate at 4° C. overnight. • Wash the plate three times using 100 µL PBST buffer (1x PBS containing 0.05% Tween20) per well. • Tap plate onto clean paper towel to remove liquid. • Block the wells by adding 100 µL of Blocking buffer 3 to every well. Incubate at room temperature for 1 h 15 minutes. • Wash plate three times with 100 µL PBST buffer as described above. • Tap plate onto clean paper towel to remove liquid.
1) Preparation of 1X PARP Buffer: • Prepare 1x PARP buffer by adding 1 part of 10x PARP buffer to 9 parts distilled water (v/v). To prepare 500 µL of 1X PARP buffer, add 50 µL 10X PARP Assay buffer to 450 µL of H2O and mix well.
2) Preparation of the Ribosylation master mixture: • N wells x (1.25 µL 10x PARP buffer + 1.25 µL 10X PARP Assay mixture + 2.5 µL Activated DNA + 7.5 µL distilled water). Add 12.5 µL to every well.
3) Preparation of the inhibitor solution: • 10 mM stock solution of the inhibitor was prepared in DMSO. From 10 mM stock solution, 250X concentrations of the inhibitor were made in DMSO. • 250X DMSO concentrations of the inhibitor were further diluted to 10X concentrations in 1X kinase buffer. • 2.5 µL (10X concentrations) of kinase buffer containing inhibitor was added to each well. • For the “Positive Control” and “Blank”, add 2.5 µL of kinase buffer containing DMSO (4%) was added. • The final DMSO concentration in the well was 0.4 %.
4) Preparation of the enzyme solution: • Thaw PARP1 enzyme on ice. Upon first thaw, briefly spin tube containing enzyme to recover full content of the tube. Calculate the amount of PARP1 required for the assay and dilute enzyme to 2.0 ng/µL with 1x PARP buffer. • Initiate reaction by adding 10 µL of diluted PARP1 enzyme to the wells designated “Positive Control” and “Test Inhibitor”. • To the wells designated as “Blank”, add 10 µL of 1X PARP buffer. • Centrifuge the plate at 1000 rpm for 30 seconds and incubate at room temperature for 60 min. • Discard the reaction mixture after 1 hour, and wash plate three times with 100 µL PBST buffer and tap plate onto clean paper towel as described above.
1) Preparation of Streptavidin-HRP: • Dilute Streptavidin-HRP 1:50 in Blocking buffer. • Add 25 µL of diluted Streptavidin-HRP to each well. Incubate for 30 min. at room temperature. • Wash three times with 100 µL PBST buffer and tap plate onto clean paper towel as above as described above.
2) Preparation of ECL substrate: • Just before use, mix on ice equal amounts of ELISA ECL Substrate A and ELISA ECL Substrate B and add 50 µL per well. • Immediately read the plate in microtiter-plate in Chemiluminescence setting. The “Blank” value is subtracted from all other values.

As to `CC1(O)C(=O)N(c2cccc(Cc3n[nH]c(=O)c4ccccc34)c2)c2ccccc21` (stereo not drawn) [Example 28, 4-(3-(3-Hydroxy-3-methyl-2-oxoindolin-1-yl)benzyl)phthalazin-1(2H)-one], the melting point was in the range of 240 to 243 °C. For the same compound, the inhibition at 0.01 µM at PARP1 (read-out: % inhibition 10 nM) fell in the range of 75 to 100%. Besides, the inhibition at 0.1 µM at PARP1 (read-out: % inhibition 100 nM) is 75 to 100%.

For the compound `CCC1(O)C(=O)N(c2cncc(Cc3n[nH]c(=O)c4ccccc34)c2)c2ccccc21` (stereo not drawn) [Example 5, 4-((5-(3-Ethyl-3-hydroxy-2-oxoindolin-1-yl)pyridin-3-yl)methyl)phthalazin-1(2H)-one], the melting point fell in the range of 117 to 120 °C. Moreover, the inhibition at 0.01 µM at PARP1 (read-out: % inhibition 10 nM) lay within 75 to 100%. Further, the inhibition at 0.1 µM at PARP1 (read-out: % inhibition 100 nM) lay within 75 to 100%.

Consider `CC1(O)C(=O)N(c2cc(Cc3n[nH]c(=O)c4ccccc34)ccn2)c2ccccc21` (single isomer, unassigned; (-)) [Example 19, (-)-4-((2-(3-Hydroxy-3-methyl-2-oxoindolin-1-yl)pyridin-4-yl)methyl)phthalazin-1(2H)-one], for which the melting point was 207 to 210 °C. On PARP1, this compound had an IC50 of less than 10 nM. Besides, the inhibition at 0.01 µM at PARP1 (read-out: % inhibition 10 nM, PARP enzyme assay, 10 nM compound) was 75 to 100%. For the same compound, the inhibition at 0.1 µM at PARP1 (read-out: % inhibition 100 nM, PARP enzyme assay, 100 nM compound) was 75 to 100%. The IC50 against PARP2 is less than 10 nM.

With `O=C1Cc2ccccc2N1c1cc(Cc2n[nH]c(=O)c3ccccc23)ccc1F` [Example 33, 4-(4-Fluoro-3-(2-oxoindolin-1-yl)benzyl)phthalazin-1(2H)-one], the melting point fell in the range of 232 to 235 °C. Further, the inhibition at 0.01 µM on PARP1 (read-out: % inhibition 10 nM) is 75 to 100%. For the same compound, the inhibition at 0.1 µM at PARP1 (read-out: % inhibition 100 nM) was in the range of 75 to 100%.

In turn, `CC1(O)C(=O)N(c2cc(Cc3n[nH]c(=O)c4ccccc34)ccn2)c2ccccc21` (stereo not drawn) [Example 18, 4-((2-(3-hydroxy-3-methyl-2-oxoindolin-1-yl)pyridin-4-yl)methyl)phthalazin-1(2H)-one] had a melting point of 203 to 205 °C. Also, the IC50 on PARP1 is less than 10 nM. Also, the inhibition at 0.01 µM on PARP1 (read-out: % inhibition 10 nM) fell in the range of 75 to 100%. For the same compound, the inhibition at 0.1 µM at PARP1 (read-out: % inhibition 100 nM) was in the range of 75 to 100%. Moreover, the concentration for half-maximal inhibition (IC50) on PARP2 was less than 10 nM.

`CC(=O)OC1(C)C(=O)N(c2cncc(Cc3n[nH]c(=O)c4ccccc34)c2)c2ccccc21` (stereo not drawn) [Example 32, 3-Methyl-2-oxo-1-(5-((4-oxo-3,4-dihydrophthalazin-1-yl)methyl)pyridin-3-yl)indolin-3-yl acetate] came in with a melting point of 237 to 239 °C. For the same compound, the inhibition at 0.01 µM at PARP1 (read-out: % inhibition 10 nM) is 75 to 100%. Also, at PARP1 (read-out: % inhibition 100 nM), the inhibition at 0.1 µM fell in the range of 75 to 100%.

`O=C1N(c2cncc(Cc3n[nH]c(=O)c4ccccc34)c2)c2ccccc2C12CC2` [Example 38, 1′-(5-((4-Oxo-3,4-dihydrophthalazin-1-yl)methyl)pyridin-3-yl)spiro[cyclopropane-1,3′-indolin]-2′-one] displayed a melting point of 219 to 222 °C. In addition, the inhibition at 0.01 µM on PARP1 (read-out: % inhibition 10 nM) fell in the range of 75 to 100%. Besides, on PARP1 (read-out: % inhibition 100 nM), the inhibition at 0.1 µM lay in the range of 75 to 100%.

`CC1(C)C(=O)N(c2cc(Cc3n[nH]c(=O)c4ccccc34)ccc2F)c2cccnc21` [Example 37, 4-(3-(3,3-Dimethyl-2-oxo-2,3-dihydro-1H-pyrrolo[3,2-b]pyridin-1-yl)-4-fluorobenzyl)phthalazin-1(2H)-one]: the melting point lay in the range of 114 to 117 °C. In addition, the inhibition at 0.01 µM at PARP1 (read-out: % inhibition 10 nM) was 25 to 50%. For the same compound, the inhibition at 0.1 µM at PARP1 (read-out: % inhibition 100 nM) lay within 75 to 100%.

On to `CC1(O)C(=O)N(c2cc(Cc3n[nH]c(=O)c4cc(F)ccc34)ccc2F)c2ccccc21` (stereo not drawn) [Example 29, 7-Fluoro-4-(4-fluoro-3-(3-hydroxy-3-methyl-2-oxoindolin-1-yl)benzyl)phthalazin-1(2H)-one], for which the melting point was in the range of 207 to 210 °C. Further, the inhibition at 0.01 µM on PARP1 (read-out: % inhibition 10 nM) lay in the range of 75 to 100%. The inhibition at 0.1 µM on PARP1 (read-out: % inhibition 100 nM) fell in the range of 75 to 100%.

In turn, `O=C1N(c2cncc(Cc3n[nH]c(=O)c4ccccc34)c2)c2ccccc2C1(O)C(F)(F)F` (single isomer, unassigned; (-)) [Example 27, (-)-4-((5-(3-Hydroxy-2-oxo-3-(trifluoromethyl)indolin-1-yl)pyridin-3-yl)methyl)phthalazin-1(2H)-one] registered a melting point of 210 to 214 °C. In addition, at PARP1, the “% inhibition 10 nM” value is on record as “C (C represents >25% to ≤50%)” and the “% inhibition 100 nM” value is “C (C represents >25% to ≤50%)”.

Compound `CC1(O)C(=O)N(c2cccc(Cc3n[nH]c(=O)c4ccccc34)c2)c2cnccc21` (stereo not drawn) [Example 31, 4-(3-(3-Hydroxy-3-methyl-2-oxo-2,3-dihydro-1H-pyrrolo[2,3-c]pyridin-1-yl)benzyl)phthalazin-1(2H)-one] had a melting point of 133 to 136 °C. Also, the inhibition at 0.01 µM at PARP1 (read-out: % inhibition 10 nM) is 25 to 50%. For the same compound, on PARP1 (read-out: % inhibition 100 nM), the inhibition at 0.1 µM fell in the range of 75 to 100%.

Take `CC1(O)C(=O)N(c2cncc(Cc3n[nH]c(=O)c4cc(F)ccc34)c2)c2cc(F)ccc21` (stereo not drawn) [Example 17, 7-Fluoro-4-((5-(6-fluoro-3-hydroxy-3-methyl-2-oxoindolin-1-yl)pyridin-3-yl)methyl)phthalazin-1(2H)-one]: the melting point lay in the range of 219 to 221 °C. The inhibition at 0.01 µM on PARP1 (read-out: % inhibition 10 nM) was in the range of 75 to 100%. The inhibition at 0.1 µM on PARP1 (read-out: % inhibition 100 nM) is 75 to 100%.

`O=C1N(c2cncc(Cc3n[nH]c(=O)c4ccccc34)c2)c2ccccc2C1(O)C(F)(F)F` (single isomer, unassigned; (+)) [Example 26, (+)-4-((5-(3-Hydroxy-2-oxo-3-(trifluoromethyl)indolin-1-yl)pyridin-3-yl)methyl)phthalazin-1(2H)-one]: the melting point lay within 170 to 174 °C. Besides, at PARP1, the “% inhibition 10 nM” value is recorded as “A (A represents >75% to 100%)” and the “% inhibition 100 nM” value is recorded as “A (A represents >75% to 100%)”.

For the compound `CC1(C)C(=O)N(c2cncc(Cc3n[nH]c(=O)c4ccccc34)c2)c2ccccc21` [Example 35, 4-((5-(3,3-Dimethyl-2-oxoindolin-1-yl)pyridin-3-yl)methyl)phthalazin-1(2H)-one], the melting point lay in the range of 221 to 224 °C. In addition, the inhibition at 0.01 µM at PARP1 (read-out: % inhibition 10 nM) was in the range of 75 to 100%. Further, the inhibition at 0.1 µM on PARP1 (read-out: % inhibition 100 nM) lay in the range of 75 to 100%.

On to `CC1(O)C(=O)N(c2cncc(Cc3n[nH]c(=O)c4ccccc34)c2)c2ccc(F)cc21` (stereo not drawn) [Example 13, 4-((5-(5-Fluoro-3-hydroxy-3-methyl-2-oxoindolin-1-yl)pyridin-3-yl)methyl)phthalazin-1(2H)-one], for which the melting point is 116 to 120 °C. The half-maximal inhibitory concentration (IC50) at PARP1 is less than 10 nM. Further, the inhibition at 0.01 µM on PARP1 (read-out: % inhibition 10 nM) was 75 to 100%. Also, at PARP1 (read-out: % inhibition 100 nM), the inhibition at 0.1 µM fell in the range of 75 to 100%. The IC50 on PARP2 is less than 10 nM.

In turn, `CC1(O)C(=O)N(c2cncc(Cc3n[nH]c(=O)c4ccccc34)c2)c2cc(F)ccc21` (stereo not drawn) [Example 16] showed a melting point of 125 to 128 °C. Also, the inhibition at 0.01 µM on PARP1 (read-out: % inhibition 10 nM) was 75 to 100%. In addition, the inhibition at 0.1 µM at PARP1 (read-out: % inhibition 100 nM) lay within 75 to 100%.

For `CC1(C)C(=O)N(c2cncc(Cc3n[nH]c(=O)c4ccccc34)c2)c2cccnc21` [Example 36, 4-((5-(3,3-Dimethyl-2-oxo-2,3-dihydro-1H-pyrrolo[3,2-b]pyridin-1-yl)pyridin-3-yl)methyl)phthalazin-1(2H)-one], the melting point was 242 to 245 °C. Further, the inhibition at 0.01 µM at PARP1 (read-out: % inhibition 10 nM) lay in the range of 25 to 50%. In addition, the inhibition at 0.1 µM on PARP1 (read-out: % inhibition 100 nM) fell in the range of 75 to 100%.

As to `CC1(O)C(=O)N(c2cncc(Cc3n[nH]c(=O)c4cc(F)ccc34)c2)c2ccc(F)cc21` (stereo not drawn) [Example 10, 7-Fluoro-4-((5-(5-fluoro-3-hydroxy-3-methyl-2-oxoindolin-1-yl)pyridin-3-yl)methyl)phthalazin-1(2H)-one], the melting point fell in the range of 157 to 160 °C. At PARP1, this compound yielded an IC50 of less than 10 nM. Also, the inhibition at 0.01 µM at PARP1 (read-out: % inhibition 10 nM) was 75 to 100%. Moreover, at PARP1 (read-out: % inhibition 100 nM), the inhibition at 0.1 µM lay in the range of 75 to 100%.

As to `CC1(O)C(=O)N(c2cncc(Cc3n[nH]c(=O)c4ccc(F)cc34)c2)c2ccccc21` (stereo not drawn) [Example 9, 6-Fluoro-4-((5-(3-hydroxy-3-methyl-2-oxoindolin-1-yl)pyridin-3-yl)methyl)phthalazin-1(2H)-one], the melting point fell in the range of 132 to 135 °C. The inhibition at 0.01 µM on PARP1 (read-out: % inhibition 10 nM) was in the range of 75 to 100%. Moreover, on PARP1 (read-out: % inhibition 100 nM), the inhibition at 0.1 µM lay in the range of 75 to 100%.

In turn, `CC1(O)C(=O)N(c2cncc(Cc3n[nH]c(=O)c4cc(F)ccc34)c2)c2ccccc21` (stereo not drawn) [Example 6, 7-Fluoro-4-((5-(3-hydroxy-3-methyl-2-oxoindolin-1-yl)pyridin-3-yl)methyl)phthalazin-1(2H)-one] showed a melting point of 133 to 136 °C. At PARP2, the IC50 was less than 10 nM.

On to `CC1(O)C(=O)N(c2cc(Cc3n[nH]c(=O)c4ccccc34)ccc2F)c2ccccc21` (stereo not drawn) [Example 4, 4-(4-Fluoro-3-(3-hydroxy-3-methyl-2-oxoindolin-1-yl)benzyl)phthalazin-1(2H)-one], for which the melting point lay in the range of 131 to 134 °C. On PARP1 (read-out: % inhibition 10 nM), the inhibition at 0.01 µM is 75 to 100%. Besides, at PARP1 (read-out: % inhibition 100 nM), the inhibition at 0.1 µM fell in the range of 75 to 100%.

Take `COC1(C)C(=O)N(c2cncc(Cc3n[nH]c(=O)c4ccccc34)c2)c2ccccc21` (stereo not drawn) [Example 30, 4-((5-(3-methoxy-3-methyl-2-oxoindolin-1-yl)pyridin-3-yl)methyl)phthalazin-1(2H)-one]: the melting point fell in the range of 207 to 210 °C. Also, the inhibition at 0.01 µM at PARP1 (read-out: % inhibition 10 nM) fell in the range of 25 to 50%. For the same compound, the inhibition at 0.1 µM on PARP1 (read-out: % inhibition 100 nM) was 75 to 100%.

For the compound `CC1(C)C(=O)N(c2cc(Cc3n[nH]c(=O)c4ccccc34)ccc2F)c2ccccc21` [Example 34, 4-(3-(3,3-Dimethyl-2-oxoindolin-1-yl)-4-fluorobenzyl)phthalazine-1(2H)-one], the melting point was 129 to 132 °C. In addition, the inhibition at 0.01 µM on PARP1 (read-out: % inhibition 10 nM) lay within 75 to 100%. Further, the inhibition at 0.1 µM on PARP1 (read-out: % inhibition 100 nM) fell in the range of 75 to 100%.

In general, melting point refers to the temperature, or range, at which the solid turns liquid. The inhibition is the share of the control response that was lost under treatment. In general, IC50 refers to the midpoint of a concentration-inhibition curve. High values mean lower potency, low ones higher potency.

Values taken from patent publication US20230234938A1 (RHIZEN PHARMACEUTICALS AG, priority 2020, published 2023).
